# Key:
# [1] = system: HEK293 cells; assay: CellTiter-Glo Luminescent Cell Viability Assay in HEK293 cells; assay type: cell-based; conditions: Homo sapiens, 7 days (168 h) incubation, 3 μM to 0.00015 μM
# Text: CellTiter-Glo™ Assay in HEK293 Cells
# The CellTiter-Glo™ Luminescent Cell Viability Assay (Promega) is a homogeneous method of determining the number of viable cells in culture based on quantitation of the ATP present, which signals the presence of metabolically active cells.
# HEK293 cells (human embryonic kidney cell line transformed by Adenovirus 5 fragments, ATCC-No. CRL 1573) are cultivated in Dulbecco's Modified Eagle Medium (DMEM) with Glutamax™ (Invitrogen, 31966-021), 5% Fetal Calf Serum (FCS, Sigma Cat-No. F4135 (FBS)), 100 Units/ml penicillin/100 μg/ml streptomycin (=Pen/Strep from Invitrogen Cat. No. 15140). For the assay the cells are seeded in 384 well plates, 5000 cells per well, in the same medium. The next day the test compounds are added in various concentrations ranging from 3 μM to 0.00015 μM (10 concentrations, 1:3 diluted). After 7 days the CellTiter-Glo™ assay is done according to the instructions of the manufacturer (CellTiter-Glo™ Luminescent Cell Viability Assay, from Promega). In brief: the cell-plate is equilibrated to room temperature for approximately 30 minutes and than the CellTiter-Glo™ reagent is added. The contents are carefully mixed for 15 minutes to induce cell lysis. After 45 minutes the luminescent signal is measured in Victor 2, (scanning multiwell spectrophotometer, Wallac).
# 1. day: • Medium: Dulbecco's Modified Eagle Medium (DMEM) with Glutamax™ (Invitrogen, 31966-021), 5% Fetal Calf Serum (FCS, Sigma Cat-No. F4135 (FBS)), Pen/Strep (Invitrogen Cat. No. 15140). • HEK293 (ATCC-No. CRL 1573): 5000 cells in 60 μl per well of 384 well plate (Greiner 781098, white plates) • Incubate 24 h at 37° C., 5% CO2 2. day: Induction (Substance testing):
# In general the dilution steeps are 1:3 • a) Add 8 μl of 10 mM stock solution of compound to 72 μl DMSO • b) dilute 9× 1:3 (always 30 μl to 60 μl DMSO) in this DMSO dilution row (results in 10 wells with concentrations from 1000 μM to 0.06 μM) • c) dilute each concentration 1:4.8 (10 μl compound dilution to 38 μl medium) • d) dilute each concentration 1:10 (10 μl compound dilution to 90 μl medium) • e) add 10 μl of every concentration to 60 μl medium in the cell plate • resulting in final concentration of DMSO: 0.3% in every well • and resulting in final concentration of compounds from 3 μM to 0.00015 μM • Incubate 168 h (7 days) at 37° C., 5% CO2
# • Add 30 μl CellTiter-Glo™ Reagent/well, • shake 15 minutes at room temperature • incubate further 45 minutes at room temperature without shaking.
# • Victor 2 scanning multiwell spectrophotometer (Wallac), Luminescence mode • Determine IC50 with XL-fit (XLfit software (ID Business Solution Ltd., Guilford, Surrey, UK)).
SMILES,IC50 [1],melting point
"FC(F)(F)Oc1ccc(/C=C/c2nc(COc3ccc(CCCCn4ccnc4)nn3)co2)cc1 [Example 1, 3-(4-Imidazol-1-yl-butyl)-6-{2-[(E)-2-(4-trifluoromethoxy-phenyl)-vinyl]-oxazol-4-ylmethoxy}-pyridazine]",0.2 to 2 µM,
"Clc1ccc(/C=C/c2nc(COc3ccc(CCCCn4cncn4)nn3)co2)cc1 [Example 2, 3-{2-[(E)-2-(4-Chloro-phenyl)-vinyl]-oxazol-4-ylmethoxy}-6-(4-[1,2,4]triazol-1-yl-butyl)-pyridazine]",0.2 to 2 µM,165 to 167 °C
"FC(F)(F)c1ccc(/C=C/c2nc(COc3ccc(CCCCn4cncn4)nn3)co2)cc1 [Example 3, 3-(4-[1,2,4]Triazol-1-yl-butyl)-6-{2-[(E)-2-(4-trifluoromethyl-phenyl)-vinyl]-oxazol-4-ylmethoxy}-pyridazine]",0.93 µM,145 to 146 °C
"Fc1cc(C(F)(F)F)ccc1/C=C/c1nc(COc2ccc(CCCCn3cncn3)nn2)co1 [Example 4, 3-{2-[(E)-2-(2-Fluoro-4-trifluoromethyl-phenyl)-vinyl]-oxazol-4-ylmethoxy}-6-(4-[1,2,4]triazol-1-yl-butyl)-pyridazine]",0.2 to 2 µM,141 to 143 °C
"FC(F)(F)c1ccc(/C=C/c2nc(COc3cnc(CCCCn4cncn4)cn3)co2)cc1 [Example 5, 2-(4-[1,2,4]Triazol-1-yl-butyl)-5-{2-[(E)-2-(4-trifluoromethyl-phenyl)-vinyl]-oxazol-4-ylmethoxy}-pyrazine]",0.2 to 2 µM,147 to 148 °C
"Clc1ccc(/C=C/c2nc(COc3cnc(CCCCn4cncn4)cn3)co2)cc1 [Example 6, 2-{2-[(E)-2-(4-Chloro-phenyl)-vinyl]-oxazol-4-ylmethoxy}-5-(4-[1,2,4]triazol-1-yl-butyl)-pyrazine]",1.34 µM,157 to 158 °C
"FC(F)(F)Oc1ccc(/C=C/c2nc(COc3cnc(CCCCn4cncn4)cn3)co2)cc1 [Example 7, 2-(4-[1,2,4]Triazol-1-yl-butyl)-5-{2-[(E)-2-(4-trifluoromethoxy-phenyl)-vinyl]-oxazol-4-ylmethoxy}-pyrazine]",,121 to 123 °C
"FC(F)(F)Oc1ccc(/C=C/c2nc(COc3ncc(CCCCn4cccn4)cn3)co2)cc1 [Example 8, 5-(4-Pyrazol-1-yl-butyl)-2-{2-[(E)-2-(4-trifluoromethoxy-phenyl)-vinyl]-oxazol-4-ylmethoxy}-pyrimidine]",0.2 to 2 µM,143 to 145 °C
"FC(F)(F)c1ccc(/C=C/c2nc(COc3ncc(CCCCn4cccn4)cn3)co2)cc1 [Example 9, 5-(4-Pyrazol-1-yl-butyl)-2-{2-[(E)-2-(4-trifluoromethyl-phenyl)-vinyl]-oxazol-4-ylmethoxy}-pyrimidine]",,156 to 157 °C
"Clc1ccc(/C=C/c2nc(COc3ncc(CCCCn4cccn4)cn3)co2)cc1 [Example 10, 5-(4-Pyrazol-1-yl-butyl)-2-{2-[(E)-2-(4-chloro-phenyl)-vinyl]-oxazol-4-ylmethoxy}-pyrimidine]",0.2 to 2 µM,149 to 150 °C

# From patent US20090093491A1, “Diazine Azole Derivatives, Their Manufacture and Use as Pharmaceutical” (priority 2005, published 2009)
